Test system: human iPS cell Toe strain
Experiment: Effect to promote differentiation from human iPS cells into insulin-producing cells (insulin-positive cell rate, Reference Example 1)
Assay type: cell-based
Parameters: key to Activity: the sum of activity values at the two concentrations was obviously higher than the control untreated with compounds while being lower than the positive control was expressed as +; the sum was equivalent to the positive control was expressed as ++; the sum was higher than the positive control was expressed as +++
Details: activity intensity: sum of activity values (increment in insulin-positive cell rate) at 2 μM and 10 μM compared with positive control (compound of Synthesis Example 1)
Text: The evaluation system of the effect (efficacy) to promote differentiation from human iPS cells into insulin-producing cells was constructed with reference to known information (Non Patent Document 6). Further, the medium used in each differentiation stage was also produced with reference to known information (differentiation media A to E (Media A to E) described in Non Patent Document 6 were used respectively for stages 1 to 5; however, a medium free from GLP-1 receptor agonist and nicotinamide was used as differentiation medium E).
In order to evaluate the efficacy of each compound, the compound of Synthesis Example 1 was used as a positive control, and dimethylsulfoxide (DMSO) (SIGMA, D2650) with a final concentration of 0.1% was used as a control untreated with compounds. Each compound was dissolved in DMSO, and two types of compound solutions were prepared so as to have final concentrations of 2 μM and 10 μM after the compound was added to the medium. In the following evaluation, the compound solutions were added to the medium to 0.1% that is the final concentration of DMSO.
First, induction from human iPS cell Toe strain (National Institutes of Biomedical Innovation, Health and Nutrition) into cells on day 7 of culture (2 days after replacement with differentiation medium C (cells in the differentiation process from FOXA2-positive primitive gut tube cells into PDX1-positive pancreatic progenitor cells)) was performed according to the method of Non Patent Document 6 for “inducing differentiation from human iPS cells into pancreatic β cells”, and the cells were collected and thereafter stored in liquid nitrogen using Bambanker (NIPPON Genetics Co, Ltd.) at 1×10^7 cells/mL/tube, to produce a cell stock for evaluation. The cell stock was dissolved at the start of the evaluation of efficacy, suspended in differentiation medium C for stage 3 (DMEM high glucose (Life technologies, 11965092), 0.25 μM SANT-1, 0.1 μM LDN193189 (Stemgent, 04-0074), 10 μM SB431542, 2 μM Retinoic acid (Stemgent, 04-0021), 1% B27 serum free supplement (Life technologies, 17504044) and thereafter seeded in a 96-well plate (Corning, #3340) coated with Synthemax II (Corning, #5656) at 1×10^5 cells/well. After culturing for 2 days, the medium was removed, and new differentiation medium C for stage 3 with the compound or only DMSO added was added thereto at 100 μL/well. After culturing for 2 days, the medium was removed, and new differentiation medium D for stage 4 (DMEM high glucose, 0.1 μM LDN193189, 5 μM TGF-β type I receptor kinase inhibitor II (Calbiochem 616452), 0.3 μM (−)-indolactam V (Enzo life science ALX-420-011-C300), 1% B27 serum free supplement) with the compound or only DMSO added was added thereto at 100 μL/well. After culturing for 2 to 3 days, the medium was removed, and new differentiation medium E for stage 5 (GLP-1 receptor agonist and nicotinamide-free; Knockout […] (Life technologies, 12660012), 1% B27 serum free supplement) with the compound or only DMSO added was added thereto at 200 μL/well. After culturing for 2 days, the medium was removed, and a 4% paraformaldehyde phosphorus acid buffer (Wako, 163-20145) was added thereto at 150 μL/well and left standing for 30 to 60 minutes at room temperature to fix the cells. A phosphorus acid buffer (PBS) (Takara, T9181) containing 1% Triton X-100 (Sigma, T8787) was left standing for 15 minutes at room temperature, then washed with PBS-T (Takara, T9183), and was blocked for 1 hour using 20% Blocking One (Nacalai tesque, Tokyo, Japan) diluted with PBS-T at room temperature. After the removal of Blocking One, guinea pig anti-insulin antibody (Abcam, ab7842) diluted 200-fold with 20% Blocking One was added thereto at 50 μL/well, followed by standing at 4° C. overnight. […]

In the case of `Cc1cc(-c2cnc(NC(=O)C3CCC(=O)c4cccn43)s2)ccc1OC(F)(F)F` (stereo not drawn) [Example 29], the Activity was “+++”.

For `Cc1ccc(-c2cnc(NC(=O)C3(C)CCC(=O)c4cccn43)s2)cc1` (stereo not drawn) [Example 66], the Activity was “++”.

`O=C1CCC(C(=O)Nc2nc3ccc(-c4ccc5c(c4)OC(F)(F)O5)cc3s2)n2cccc21` (stereo not drawn) [Example 61] was tested, and the Activity was “+”.

With `O=C1CCC(C(=O)Nc2ncc(-c3ccc4c(c3)OCO4)s2)n2cccc21` (stereo not drawn) [Example 4] the Activity was “++”.

With `CC(C)(C)OC(=O)N1CC=C(c2cnc(NC(=O)C3CCC(=O)c4cccn43)s2)CC1` (stereo not drawn) [Example 51] the Activity was “+++”.

With `Cc1cccc(-c2cnc(NC(=O)C3CCC(=O)c4cccn43)s2)c1` (stereo not drawn) [Example 20] the Activity was “++”.

With `O=C1CCC(C(=O)Nc2ncc(-c3ccc(OC(F)(F)F)c(Cl)c3)s2)n2cccc21` (stereo not drawn) [Example 30] the Activity was “+++”.

`O=C1CCC(C(=O)Nc2ccc3nc(-c4ccc(OC(F)(F)F)cc4)sc3c2)n2cccc21` (stereo not drawn) [Example 83] was tested, and the Activity was “+”.

In the case of `O=C1CCC(C(=O)Nc2ncc(-c3ccc(OC(F)(F)F)cc3)s2)n2cc(Cl)cc21` (stereo not drawn) [Example 64], the Activity was “++”.

With `COC(=O)c1nc(NC(=O)C2CCC(=O)c3cccn32)sc1-c1ccc(OC(C)(C)C)cc1` (stereo not drawn) [Example 100] the Activity was “+”.

In the case of `CN(C)S(=O)(=O)c1ccc(-c2cnc(NC(=O)C3CCC(=O)c4cccn43)s2)cc1` (stereo not drawn) [Example 42], the Activity was “+”.

With `O=C1CCC(C(=O)Nc2ncc(-c3ccc(OC(F)(F)F)cc3)s2)n2cccc21` (stereo not drawn) [Example 9] the Activity was “+++”.

For `CC(C)(C)OC(=O)Oc1ccc(-c2cnc(NC(=O)C3CCC(=O)c4cccn43)s2)cc1` (stereo not drawn) [Example 48], the Activity was “+”.

With `Cc1cc2n(c1)C(C(=O)Nc1ncc(-c3ccc(OC(F)(F)F)cc3)s1)CCC2=O` (stereo not drawn) [Example 62] the Activity was “+++”.

For `COCCOc1ccc(-c2cnc(NC(=O)C3CCC(=O)c4cccn43)s2)cc1` (stereo not drawn) [Example 38], the Activity was “+++”.

In the case of `O=C1CCC(C(=O)Nc2ncc(-c3ccc(Cl)cc3)s2)n2cccc21` (stereo not drawn) [Example 12], the Activity was “++”.

`CN(C)C(=O)COc1ccc(-c2cnc(NC(=O)C3CCC(=O)c4cccn43)s2)cc1` (stereo not drawn) [Example 8] was tested, and the Activity was “++”.

With `CC1(C(=O)Nc2ncc(-c3cccc(OC(F)(F)F)c3)s2)CCC(=O)c2cccn21` (stereo not drawn) [Example 72] the Activity was “+++”.

For `O=C1CCC(C(=O)Nc2ccc(-c3ccc4c(c3)OC(F)(F)O4)cc2)n2cccc21` (stereo not drawn) [Example 74], the Activity was “+”.

With `Cc1nc(NC(=O)C2CCC(=O)c3cccn32)sc1-c1cnc(OCC(C)C)c(Cl)c1` (stereo not drawn) [Example 87] the Activity was “+++”.

In the case of `N#Cc1ccc(-c2cnc(NC(=O)C3CCC(=O)c4cccn43)s2)cc1` (stereo not drawn) [Example 7], the Activity was “+”.

With `Cc1cc(-c2sc(NC(=O)C3CCC(=O)c4cccn43)nc2C)ccc1OC(F)(F)F` (stereo not drawn) [Example 89] the Activity was “+++”.

`Cc1ccc(-c2cnc(NC(=O)C3CCC(=O)c4cccn43)s2)o1` (stereo not drawn) [Example 54] was tested, and the Activity was “+”.

With `O=C1CCC(C(=O)Nc2ncc(-c3cccc(F)c3)s2)n2cccc21` (stereo not drawn) [Example 15] the Activity was “+”.

`O=C1CCC(C(=O)Nc2ncc(-c3ccc(Cl)s3)s2)n2cccc21` (stereo not drawn) [Example 56] was tested, and the Activity was “++”.

In the case of `COc1cccc(-c2cnc(NC(=O)C3CCC(=O)c4cccn43)s2)c1` (stereo not drawn) [Example 27], the Activity was “++”.

`O=C1CCC(C(=O)Nc2ncc(-c3cccc(OC(F)(F)F)c3)s2)n2cccc21` (stereo not drawn) [Example 25] was tested, and the Activity was “+++”.

For `O=C1CCC(C(=O)Nc2ncc(-c3ccc(CO)cc3)s2)n2cccc21` (stereo not drawn) [Example 37], the Activity was “+”.

With `CC(C)COc1ncc(-c2cnc(NC(=O)C3CCC(=O)c4cccn43)s2)cc1Cl` (stereo not drawn) [Example 52] the Activity was “+++”.

In the case of `O=C1CCC(C(=O)Nc2ncc(-c3ccc(OCc4ccccc4)c(F)c3)s2)n2cccc21` (stereo not drawn) [Example 43], the Activity was “+++”.

With `CC(=O)c1ccc(-c2cnc(NC(=O)C3CCC(=O)c4cccn43)s2)cc1` (stereo not drawn) [Example 57] the Activity was “+”.

In the case of `Cc1cc(-c2ccc3nc(NC(=O)C4CCC(=O)c5cccn54)sc3c2)ccc1OC(F)(F)F` (stereo not drawn) [Example 92], the Activity was “+++”.

`O=C1CCC(C(=O)Nc2ncc(-c3ccc(OCc4ccccc4)cc3F)s2)n2cccc21` (stereo not drawn) [Example 44] was tested, and the Activity was “+”.

With `O=C1CCC(C(=O)Nc2ccc(-c3ccc(OC(F)(F)F)cc3)cc2)n2c(Br)ccc21` (stereo not drawn) [Example 77] the Activity was “+”.

`O=C1CCC(C(=O)Nc2ncc(-c3ccc(F)cc3)s2)n2cccc21` (stereo not drawn) [Example 16] was tested, and the Activity was “++”.

In the case of `CC(C)(C)Oc1ccc(-c2cnc(NC(=O)C3CCC(=O)c4cccn43)s2)cc1` (stereo not drawn) [Example 11], the Activity was “+++”.

For `COc1ccc(-c2cnc(NC(=O)C3CCC(=O)c4cccn43)s2)cc1` (stereo not drawn) [Example 26], the Activity was “++”.

For `O=C1CCC(C(=O)Nc2ncc(-c3ccc(N4CCOCC4)cc3)s2)n2cccc21` (stereo not drawn) [Example 41], the Activity was “+”.

For `COc1ccccc1-c1ccc(-c2cnc(NC(=O)C3CCC(=O)c4cccn43)s2)cc1` (stereo not drawn) [Example 22], the Activity was “+++”.

For `O=C1CCC(C(=O)Nc2nc3ccc(-c4ccc(Cl)cc4)cc3s2)n2cccc21` (stereo not drawn) [Example 93], the Activity was “+++”.

For `O=C1CCC(C(=O)Nc2ncc(-c3ccccc3F)s2)n2cccc21` (stereo not drawn) [Example 17], the Activity was “++”.

With `Cc1nc(NC(=O)C2CCC(=O)c3cccn32)sc1-c1ccc(OC(F)F)cc1` (stereo not drawn) [Example 91] the Activity was “+++”.

`Cc1nc(NC(=O)C2CCC(=O)c3cccn32)sc1-c1ccc2c(c1)OC(F)(F)O2` (stereo not drawn) [Example 84] was tested, and the Activity was “+++”.

With `Cc1nc(NC(=O)C2CCC(=O)c3cccn32)sc1-c1ccc(OCC(C)C)cc1` (stereo not drawn) [Example 86] the Activity was “+++”.

For `O=C1CCC(C(=O)Nc2nc3ccc(-c4ccc(F)cc4)cc3s2)n2cccc21` (stereo not drawn) [Example 94], the Activity was “+++”.

In the case of `O=C(O)c1ccc(-c2cnc(NC(=O)C3CCC(=O)c4cccn43)s2)cc1` (stereo not drawn) [Example 5], the Activity was “+”.

`Cc1ccc(-c2cnc(NC(=O)C3CCC(=O)c4cccn43)s2)cc1` (stereo not drawn) [Example 18] was tested, and the Activity was “++”.

With `Cc1ccccc1-c1cnc(NC(=O)C2CCC(=O)c3cccn32)s1` (stereo not drawn) [Example 19] the Activity was “++”.

With `CC1(C(=O)Nc2ncc(-c3ccc(OC(F)(F)F)cc3)s2)CCC(=O)c2cccn21` (stereo not drawn) [Example 65] the Activity was “+++”.

With `O=C1CCC(C(=O)Nc2ccc(-c3ccc(OC(F)F)cc3)cc2)n2cccc21` (stereo not drawn) [Example 75] the Activity was “+”.

`CC(C)Oc1ccc(-c2cnc(NC(=O)C3(C)CCC(=O)c4cccn43)s2)cc1` (stereo not drawn) [Example 69] was tested, and the Activity was “++”.

`O=C1CCC(C(=O)Nc2ncc(-c3ccc4c(c3)OC(F)(F)O4)s2)n2cccc21` (stereo not drawn) [Example 40] was tested, and the Activity was “+++”.

In the case of `CC1(C(=O)Nc2ncc(-c3ccc(OC(F)(F)F)c(Cl)c3)s2)CCC(=O)c2cccn21` (stereo not drawn) [Example 71], the Activity was “+++”.

For `O=C1CC(C(=O)Nc2ncc(-c3ccc(OC(F)(F)F)cc3)s2)n2cccc21` (stereo not drawn) [Example 58], the Activity was “++”.

`O=C1CCC(C(=O)Nc2ncc(C3=CCCCC3)s2)n2cccc21` (stereo not drawn) [Example 50] was tested, and the Activity was “+”.

For `Cc1cc2n(c1)C(C(=O)Nc1ncc(-c3ccc(OC(C)(C)C)cc3)s1)CCC2=O` (stereo not drawn) [Example 63], the Activity was “+++”.

For `O=C1CCC(C(=O)Nc2ccc(-c3ccc(OC(F)(F)F)cc3)cc2F)n2cccc21` (stereo not drawn) [Example 78], the Activity was “++”.

In the case of `O=C1CCC(C(=O)Nc2ccc(-c3ccc(OC(F)(F)F)cc3)cc2)n2cccc21` (stereo not drawn) [Example 73], the Activity was “+”.

With `NC(=O)c1ccc(-c2cnc(NC(=O)C3CCC(=O)c4cccn43)s2)cc1` (stereo not drawn) [Example 6] the Activity was “+”.

For `CC(C)C(=O)N1CC=C(c2cnc(NC(=O)C3CCC(=O)c4cccn43)s2)CC1` (stereo not drawn) [Example 97], the Activity was “++”.
